Data set [1] deals with Mouse fibrosarcoma Meth A. The data set can be described thus: TEST 1: antitumor activity of WF 2015 A in experimental tumor system in mice (Meth A). The following applies: at 14 days, mean ± S.E., n = 5, Control 1136.6 ± 138.3. The class given is in vivo, mouse (Balb/c). As for the experimental part: The antitumor activity of WF 2015 A was determined in experimental tumor system in mice.
Mouse fibrosarcoma Meth A was implanted intradermally into Balb/c mice (female, 8 weeks age) at an inoculum size of 1×10^5 cells per mouse. Twenty-four hours after the implantation of tumor cells, graded doses of WF 2015 A were administered to the mice intravenously. Treatments were once a day on day 1, 2, 3, 4 and 7, 8, 9, 10 after the tumor inoculation. Control animals received intravenous doses of physiological saline solution. The injection volume was 0.2 ml in all experiments. Five mice were used for each experimental group.
Tumor weight at 14 days after administration, as derived from caliper measurements of the length and width of tumors, was calculated by the formula: Tumor weight (mg)=1/2×a×b^2, where a represents the length and b represents the width (mm).

Data set [2] has as its system C57BL/6 responder cells (mixed lymphocyte reaction). The data set can be described thus: TEST 4: suppression of in vitro mixed lymphocyte reaction (MLR). Type of data set: cell-based, mouse (C57BL/6, BALB/C). The following applies: 4080 min. The method, then: The MLR tests were carried out in microtiter plates, with each well containing specified concentration of WF 2015 A and 5×10^5 C57BL/6 responder cells (H-2^b), 5×10^5 mitomycin C treated (25 μg/ml mitomycin C at 37° C. for 30 minutes) BALB/C stimulator cells (H-2^d) in 0.2 ml RPMI 1640 medium, supplemented with 10% fetal calf serum, 2mM glutamine, 3×10^-5 M 2-mercaptoethanol, 24 mM sodium bicarbonate, penicillin (50 unit/ml) and streptomycin (50 μ/ml). The cells were incubated at 37° C. in a humidified atmosphere of 5% CO2 :95% air for 68 hours and pulsed with ^3 H-thymidine (0.5 μCi) 4 hours before the cells were collected. Radio-activity of the cells was assayed by B-counter. From the resultant data, MLR suppression (%) was calculated.

Data set [3] deals with mouse lymphoma EL-4 cell. The data set can be described thus: TEST 2: in vitro cytotoxicity of WF 2015, EL-4 cells. The class given is cell-based. The following applies: 48 hours incubation, 37° C. The method, then: (§1) Human lung adenocarcinoma A549 cell and mouse lymphoma EL-4 cell were used in this study. A549 cells were propagated as monolayer culture in Dulbecco's medium supplemented with 10% heat inactivated fetal bovine serum (FBS), penicillin G (60 μg/ml) and streptomycin (20 μg/ml) and harvested by trypsinization. EL-4 cells were maintained in RPMI medium supplemented with 10% FBS and the antibiotics in culture flasks.
(§2) Exponentially growing cells of A 549 or EL-4, which harvested from the cultures, were suspended in flask in the appropriate medium (Dulbecco's or RPMI medium supplemented with 10% FBS and antibiotics) at a concentration of 2×10^4 cells/ml or 2×10^5 cells/ml. respectively. Cells were treated with the graded doses of WF 2015 in plastic tissue culture dishes.
(§3) Concentration of the substance required for 50% inhibition of cell growth (IC50 value, μg/ml) was determined by plotting the logarithm of the drug concentration versus the growth rate (percentage of control) of the treated cells after 120 hours incubation for A 549 cells and 48 hours incubation for EL-4 cells at 37° C. in humidified atmosphere of 5% carbon dioxide.

A short description of data set [4]: Solubility of WF 2015 A and B (physicochemical properties).
In data set [5] the test system is ICR strain mice. The experiment in a line: TEST 3: acute toxicity of WF 2015 in mice. Type of data set: in vivo, mouse (ICR). The conditions noted are these: 100 mg/kg once a day for 5 days, 5 female ICR mice.
Data set [6] concerns Human lung adenocarcinoma A549 cell. The experiment in a line: TEST 2: in vitro cytotoxicity of WF 2015, A549 cells. Type of data set: cell-based. The following applies: 120 hours incubation, 37° C. The method, then: as §1, §2, §3
Data set [7] deals with Human MX-1 mammary. The experiment in a line: TEST 5: antitumor activity in vivo (human MX-1 mammary in nude mice). Also noted: species or system human tumor in BALB/c nu/nu mice. The conditions noted are these: day 0→4, 7→11, 14→18, evaluated day 21, n = 8. The method, then: Human MX-1 mammary (each fragment, 3×3×3 mm), maintained s.c. by serial passage in female BALB/c nu/nu mice aged 6 weeks was implanted s.c. to female BALB/c nu/nu mice on day 0, and WF 2015 A or vehicle were given i.v. to the mice once a day on specified days (day0→4, day 7→11 and day 14→18).
Tumor weight was calculated as follows: (Tumor length and width were measured by caliper.)
Tumor weight (mg)=1/2×a×b^2, where a represents length and b represents width (mm).
Tumor weights (initial) and (last) were calculated on the first injection day (just before dosing) and on day 21, (the last evaluation day), respectively.
Eight mice were used for each test group and each vehicle-treated control group, respectively.
Drug efficacy was expressed as tumor growth inhibition (%).

Take `CO[C@@H]1[C@H](OC(=O)/C=C/C(O)C(C)O)CC[C@]2(CO2)[C@H]1[C@@]1(C)O[C@@H]1CC=C(C)C` (some centres unmarked) [WF 2015 A]: the Tumor weight in data set [1] (1.0 mg/kg i.v. once a day on day 1, 2, 3, 4 and 7, 8, 9, 10) is 864 ± 108.7 mg; in data set [1] (3.3 mg/kg i.v. once a day on day 1, 2, 3, 4 and 7, 8, 9, 10), 682 ± 131.5 mg; in data set [1] (10 mg/kg i.v. once a day on day 1, 2, 3, 4 and 7, 8, 9, 10), 27.7 ± 105.6 mg. Moreover, the “MLR suppression (%)” value was determined as 0.0% in data set [2] (0.0066 ng/ml); 0.4% in data set [2] (0.02 ng/ml); 8.5% in data set [2] (0.066 ng/ml); 9.4% in data set [2] (0.2 ng/ml); 49.1% in data set [2] (6.6 ng/ml); 86.2% in data set [2] (20 ng/ml). In addition, the “MLR suppression (%)” value in data set [2] (40 ng/ml) was determined as 88.0%; in data set [2] (161 ng/ml), 87.3%; in data set [2] (1,250 ng/ml), 89.0%; in data set [2] (10,000 ng/ml) it was 94.4%. Besides, the “IC50 value (concentration required for 50% inhibition of cell growth)” value in data set [3] was found to be 0.65 ng/mL; in data set [6] it was 0.3 ng/mL. Besides, the Solubility result is “Soluble” in data set [4] (Chloroform, methanol, acetone, ethanol) and “Insoluble” in data set [4] (n-Hexane, water). For the same compound, the “Acute toxicity, abnormal symptom of the mice” value in data set [5] is “no abnormal symptom of the mice was observed”. The “Tumor Growth Inhibition (%)” value in data set [7] (10 mg/kg i.v. once a day) is given as 41.2%; in data set [7] (30 mg/kg i.v. once a day), 62.6%.

The values above are taken from patent publication US4910017A, “New compounds WF 2015 A and B” (Fujisawa Pharmaceutical Company, Ltd., priority 1987, dated 1990).
